Data taken from PMC8840081, “Phenylalanine-Based AMPA Receptor Antagonist as the Anticonvulsant Agent with Neuroprotective Activity—In Vitro and In Vivo Studies” (Molecules, 2022).
“And” between values parts separate entries of the source, which are not always exact repeats. Equal values may be shown once.

How the values were obtained:
[1] = ferric reducing antioxidant power (FRAP) assay; details: % of ascorbic acid activity; compounds and AA at 1 mM
Method: The total antioxidant potential of aryl-substituted phenylalanine derivatives was determined using FRAP assay. The FRAP reagent was prepared first by mixing acetate buffer (300 mM, pH 3.6), a solution of 10 mM TPTZ (2,4,6-tripyridyl-s-triazine, Sigma-Aldrich, Inc., St. Louis, MO, USA) in 40 mM HCl and 20 mM of iron (III) chloride hexahydrate (FeCl3 × 6H2O, Chempur, Piekary Śląskie, Poland) at 10:1:1 (v/v/v). The FRAP reagent (190 μL) and 1 mM of tested compound (10 μL) was added next to each well, mixed and incubated for 30 min. The absorbance was measured using a microplate reader EnSpire (PerkinElmer, Waltham, MA USA) at 593 nm. AA (1 mM, AMARA, Kraków, Poland) was used as the reference antioxidant. The results were expressed as % of ascorbic acid activity (%AAA). Analyses were performed in triplicate. • ORAC-FL

[2] = oxygen radical absorbance capacity fluorescent (ORAC-FL) assay; details: Trolox equivalent, calculated at 5 µM of compounds and Trolox
Method: The ORAC-FL was performed according to procedure described in the literature. The reagents used in this assay, TX, fluorescein and 2,2′-azobis(2-amidinopropane) dihydrochloride (AAPH), were purchased from Sigma-Aldrich, Inc., St. Louis, MO, USA. The prepared ORAC-FL reagent consisted of 0.3 μM of fluorescein and 100 µM of AAPH dissolved in PBS buffer. The compounds and the reference antioxidant TX were tested at the concentration 2.5 µM and the results were compared to the blank in which no antioxidant was present. The assays were performed in black 96-well plates. The fluorescence readings were taken by a microplate reader EnSpire (PerkinElmer, Waltham, MA, USA) every minute for a duration of 240 min. The excitation wavelength was 485 nm and the emission wavelength was 520 nm. The area under the fluorescence decay curve (AUC) was calculated next by GraphPad Prism™ software (version 5.01, San Diego, CA, USA). All measurements were performed in triplicate. The TX equivalent (TE) was calculated next using the following Equation (1):TE = [(AUCsample − AUCblank)/(AUCTX − AUCblank)] × [CTX/Csample](1)

[3] = system: electrically induced seizures in mice; assay: maximal electroshock (MES) test; format: in vivo; details: 100 mg/kg i.p.
Method: Behavioral experiments were carried out in male Albino Swiss (CD-1) mice weighing 18–22 g. The mice were kept in cages, in groups of 10 animals. They had free access to food and water before experiments, and were maintained at room temperature 22–24 °C, under 12:12 (light/dark) cycle. For the assays the animals were selected randomly. After the experiments the animals were euthanized by cervical dislocation. Experimental procedures for in vivo tests were approved by the Local Ethics Committee of the Jagiellonian University in Krakow (Approval No. 33/2018; release date: 1.02.2018) and the treatment of animals was performed in full accordance with ethical standards laid down in respective Polish and EU regulations (Directive 2010/63/EU).
Oxaliplatin was purchased from Activate Scientific GmbH (Prien, Germany). PTZ and STZ were provided by Merck KGaA (Darmstadt, Germany). For the in vivo tests, the compound 1 was suspended in 1% Tween 80 solution (Polskie Odczynniki Chemiczne, Gliwice, Poland), then being administered intraperitoneally 1 h before tests. For the evaluation of anticonvulsant properties of the test compound, a fixed dose of 100 mg/kg, was used. Since many AEDs at lower doses are used as analgesic drugs, for pain tests the doses 10 and 30 mg/kg were selected.
MES test was performed as described previously. […]

[4] = system: tactile allodynia in diabetic mice; assay: diabetic (STZ) neuropathic pain model, von Frey test; format: in vivo; details: 30 mg/kg i.p.
Method: Behavioral experiments were carried out in male Albino Swiss (CD-1) mice weighing 18–22 g. The mice were kept in cages, in groups of 10 animals. They had free access to food and water before experiments, and were maintained at room temperature 22–24 °C, under 12:12 (light/dark) cycle. For the assays the animals were selected randomly. After the experiments the animals were euthanized by cervical dislocation. […]
To induce type I diabetes and diabetic neuropathic pain, mice were administered STZ, an alkylating antitumor drug that destroys insulin-secreting islet cells. […] Blood glucose levels were measured 1 day before (referred to as ‘day 0′) and repeatedly 1, 2 and 3 weeks after STZ injection using a blood glucose monitoring system (AccuChek Active, Roche, France). […]
The electronic von Frey unit (Bioseb, France) is supplied with a single flexible filament applying increasing force (from 0 to 10 g) against the plantar surface of the hind paw. In this assay the nocifensive paw withdrawal response automatically turns off the stimulus and the mechanical pressure that evoked the response was recorded. […]

## NC(Cc1cc(-c2cc(O)ccc2O)c(Cl)c([N+](=O)[O-])c1)C(=O)O (centres unmarked) [Compound 1]
[1]
  FRAP (%AAA): 748.5 %AAA and 748.49 %AAA
[2]
  ORAC (TE): 3.46 TE
[3]
  Mortality rate (%): 25%
[3]; 1 h before test
  X/Y, number of mice protected (X) per number of mice tested (Y): 0/4
[4]
  antiallodynic activity, von Frey test: not able to attenuate tactile allodynia
